# What was measured:
# ECF–FolT2 [1] = biological target: T1, ECF–FolT2 (Lactobacillus delbrueckii, UniProt Q1GBI9+Q1GBJ0); experiment: crystal structure […] Å; type: binding; conditions: 10 mM MgCl2; one AMP-PNP bound to each of EcfA and EcfA'; ATPase dimer open
# T1 construct: gene ecfA1; full ECF complex EcfA-EcfA'-EcfT-FolT2; N-terminal His10-tag and TEV site on EcfA, C-terminal STREPII tag on FolT2; expressed in E. coli MC1061; nucleotide sites on EcfA and EcfA'; with Energy-coupling factor transporter transmembrane protein EcfT; Folate family ECF transporter S component FolT2
# ECF–FolT2 [2] = biological target: T1, ECF–FolT2; experiment: coupled-enzyme ATPase assay in proteoliposomes; type: biochemical; conditions: 1 mM MgATP, 50 mM KPi pH 7.5, 200 mM NaCl, 30 °C
# ECF–FolT2 [3] = biological target: T2, ECF–FolT2 (Lactobacillus delbrueckii, UniProt Q1G929); experiment: radiolabelled folate uptake and efflux in proteoliposomes; type: biochemical; conditions: 5 mM luminal MgATP, 100 nM folate, pH 7.5, 25 °C; labelled compound
# T2 construct: gene Ldb1625; His10-EcfA, FolT2-STREPII; expressed in E. coli MC1061; reconstituted in proteoliposomes; Energy-coupling factor transporter transmembrane protein EcfT
# ECF–FolT1 = biological target: T3, ECF–FolT1 (Lactobacillus delbrueckii, UniProt Q1G930); experiment: radiolabelled folate uptake in proteoliposomes; type: biochemical; conditions: luminal MgATP; labelled compound
# T3 construct: gene Ldb1624; full ECF complex EcfA-EcfA'-EcfT-FolT1; His10-EcfA, FolT1-STREPII; expressed in E. coli MC1061; reconstituted in proteoliposomes; Energy-coupling factor transporter transmembrane protein EcfT
# FolT2 = biological target: T4, FolT2 (Lactobacillus delbrueckii, UniProt Q1G929); experiment: intrinsic fluorescence titration; type: binding; conditions: read-out: dissociation constant
# T4 construct: gene Ldb1625; solitary S-component, N-terminal His8-tag, expressed in Lactococcus lactis NZ9000, purified in n-nonyl-beta-D-glucopyranoside
# FolT1 [4] = biological target: T5, FolT1 (Lactobacillus delbrueckii, UniProt Q1G930); experiment: intrinsic fluorescence titration; crystal structure […] Å; type: binding; conditions: read-out: dissociation constant
# T5 construct: gene Ldb1624; solitary S-component, N-terminal His8-tag, expressed in Lactococcus lactis NZ9000, purified in n-nonyl-beta-D-glucopyranoside
# FolT1 [5] = biological target: T6, FolT1 (Lactobacillus delbrueckii, UniProt Q1G930, Y122N); experiment: intrinsic fluorescence titration; type: binding; conditions: read-out: dissociation constant
# T6 construct: gene Ldb1624; solitary S-component, N-terminal His8-tag, expressed in Lactococcus lactis NZ9000, purified in n-nonyl-beta-D-glucopyranoside
# T6 sequence (Q1G930 entry or part of it Y122N): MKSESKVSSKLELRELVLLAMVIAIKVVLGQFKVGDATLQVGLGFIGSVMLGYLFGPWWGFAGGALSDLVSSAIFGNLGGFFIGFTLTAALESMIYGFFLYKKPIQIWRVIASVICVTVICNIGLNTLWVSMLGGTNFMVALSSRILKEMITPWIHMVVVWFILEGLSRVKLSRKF
# T1 sequence (Q1GBI8 entry or part of it): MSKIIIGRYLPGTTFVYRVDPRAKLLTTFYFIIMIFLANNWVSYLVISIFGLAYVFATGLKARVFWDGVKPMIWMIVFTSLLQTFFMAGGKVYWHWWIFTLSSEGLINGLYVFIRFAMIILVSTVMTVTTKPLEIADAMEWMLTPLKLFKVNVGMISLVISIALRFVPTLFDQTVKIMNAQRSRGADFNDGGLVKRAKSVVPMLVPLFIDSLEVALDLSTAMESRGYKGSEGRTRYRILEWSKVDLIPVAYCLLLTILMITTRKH
# T1 sequence (Q1GBJ0 whole entry): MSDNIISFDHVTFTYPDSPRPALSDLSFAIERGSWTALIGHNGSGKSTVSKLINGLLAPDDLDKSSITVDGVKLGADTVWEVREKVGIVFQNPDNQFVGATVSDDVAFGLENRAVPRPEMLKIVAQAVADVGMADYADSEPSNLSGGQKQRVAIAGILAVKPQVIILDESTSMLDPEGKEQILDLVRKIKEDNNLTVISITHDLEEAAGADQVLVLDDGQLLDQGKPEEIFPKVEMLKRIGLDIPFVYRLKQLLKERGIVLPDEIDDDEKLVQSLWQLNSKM
# T1 sequence (Q1GBI9 whole entry): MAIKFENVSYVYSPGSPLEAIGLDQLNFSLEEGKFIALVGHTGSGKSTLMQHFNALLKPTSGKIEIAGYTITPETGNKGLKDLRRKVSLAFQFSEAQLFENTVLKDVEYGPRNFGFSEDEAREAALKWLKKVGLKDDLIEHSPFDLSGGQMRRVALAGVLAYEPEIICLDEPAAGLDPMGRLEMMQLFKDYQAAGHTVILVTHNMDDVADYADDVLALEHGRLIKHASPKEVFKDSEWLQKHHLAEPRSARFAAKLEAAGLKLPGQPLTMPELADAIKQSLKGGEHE
# T1 sequence (Q1G929 entry or part of it, further chain): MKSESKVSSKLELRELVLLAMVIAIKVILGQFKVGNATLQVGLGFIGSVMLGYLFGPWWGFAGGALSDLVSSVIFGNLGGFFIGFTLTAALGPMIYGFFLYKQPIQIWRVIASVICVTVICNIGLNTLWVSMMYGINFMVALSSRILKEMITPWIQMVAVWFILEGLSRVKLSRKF
# T3 sequence (Q1GBJ0 whole entry): as the sequence (Q1GBJ0 whole entry) above
# T3 sequence (Q1G930 entry or part of it): as the sequence (Q1G930 entry or part of it Y122N) above, with N122Y counted along it
# T3 sequence (Q1GBI9 whole entry, further chain): as the sequence (Q1GBI9 whole entry) above
# T3 sequence (Q1GBI8 entry or part of it, further chain): as the sequence (Q1GBI8 entry or part of it) above
# T4 sequence (Q1G929 entry or part of it): as the sequence (Q1G929 entry or part of it, further chain) above
# T2 sequence (Q1GBI8 entry or part of it): as the sequence (Q1GBI8 entry or part of it) above
# T2 sequence (Q1GBJ0 whole entry, further chain): as the sequence (Q1GBJ0 whole entry) above
# T2 sequence (Q1GBI9 whole entry, further chain): as the sequence (Q1GBI9 whole entry) above
# T2 sequence (Q1G929 entry or part of it): as the sequence (Q1G929 entry or part of it, further chain) above
# T5 sequence (Q1G930 entry or part of it): as the sequence (Q1G930 entry or part of it Y122N) above, with N122Y counted along it
smiles,measurement,setting,value
Nc1ncnc2c1ncn2[C@@H]1O[C@H](COP(=O)(O)OP(=O)(O)NP(=O)(O)O)[C@@H](O)[C@H]1O [AMP–PNP],crystal structure 3.3 Å,ECF–FolT2 [1],EcfA and EcfA′ each bind a molecule of the nucleotide
Nc1ncnc2c1ncn2[C@@H]1O[C@H](COP(=O)(O)OP(=O)(O)OP(=O)(O)O)[C@@H](O)[C@H]1O [ATP],coupled-enzyme ATPase assay in proteoliposomes,ECF–FolT2 [2],we also measured the ATPase activity of ECF–FolT2 in the proteoliposomes
Nc1nc2ncc(CNc3ccc(C(=O)N[C@@H](CCC(=O)O)C(=O)O)cc3)nc2c(=O)[nH]1 [folate],radiolabelled folate uptake and efflux in proteoliposomes,ECF–FolT2 [3],ECF transporters indeed translocate their substrates across the membrane
same,radiolabelled folate uptake in proteoliposomes,ECF–FolT1,Both ECF transporters mediated association of radiolabelled folate with the proteoliposomes
same,Kd,FolT2,3.1 ± 1.4 nM
same,Kd,FolT1 [4],1 ± 0.24 nM
same,Kd,FolT1 [5],2.5 ± 1.2 nM

# Reference: paper PMC4820897, “Structural insight in the toppling mechanism of an energy-coupling factor transporter” (Nature Communications, 2016)
